Data published in paper PMC7559231, “Drug-induced cholestasis assay in primary hepatocytes” (MethodsX, 2020).
Like-named read-outs stand apart in the source and are kept apart here.

Assays:
[1] = design: method as in per compound in column References of Table 3 ([3], [24]-[44]); settings: mean total peak plasma concentration in humans; ref per compound in Table 3 ([3], [24]-[44]); cited from earlier work
[2] = test system: sandwich-cultured human hepatocytes; settings: SCHH, ref [6],[7], cited from earlier work; for DICI 24 h Mean: 24 h exposure; for DICI 48 h Mean: 48 h exposure
[3] = test system: sandwich-cultured human hepatocytes; assay: Drug-induced cholestasis (DIC) assay: urea formation in sandwich-cultured human hepatocytes with and without the bile salt mixture; settings: lowest in vitro concentration with DICI < 0.78 / Cmax,total; for DICI-based SM obtained with the ‘original’ LOAEL method 24 h: 24 h incubation; for DICI-based SM obtained with the ‘original’ LOAEL method 48 h: 48 h incubation
Source text: Drug-induced cholestasis (DIC) is a major cause of attrition during drug development and post-marketing withdrawal. Early detection of DIC is crucial for avoiding financial losses and improving drug safety. Preclinical assays for DIC detection often rely on evaluation of the test compound towards individual cellular targets such as their inhibitory potential towards the bile salt export pump (BSEP) by using BSEP membrane vesicles. However, the underlying mechanisms of DIC development are more complex involving multiple other transporters and nuclear receptors. A more comprehensive in vitro model such as sandwich-cultured human hepatocytes (SCHH) are more suited due to the presence of metabolizing enzymes and transporters relevant to bile salt disposition. The assay described here relies on changes in the ability of SCHH to produce urea from ammonia in the absence and presence of a (patho-)physiologically relevant bile salt mixture. Ammonia is detoxified in the hepatocyte by the urea cycle to form non-toxic urea. Measuring changes in urea production allows for the quantitative evaluation of the hepatocyte's biochemical and functional integrity. The colorimetric quantitation of urea formation is based on the reaction between urea and diacetylmonoxime.
By determining the ratio of urea formation after incubation with test compound in absence and in presence of the bile salt mixture, the DIC index (DICI) value can be calculated. […] It was previously established that a compound with a SM below 30 can be considered to display increased risk for causing cholestasis in the clinic.
If longer incubations are required (e.g. 48 h), the medium is changed again after 24 h (day 6) with fresh medium containing the same initial concentrations of test compound and bile salts as 24 h before.
• Solution 1: culture medium with no compound and 0.2% DMSO. […] This solution should be filtered through a 0.2 µm filter and prewarmed for 30 min at 37°C. • Solution 4: culture medium with double concentrated test compound. […] This solution should be filtered through a 0.2 µm filter and prewarmed for 30 min at 37°C. • Solution 5: control medium with bile salts, prepared by mixing solution 1 and solution 2 in a 1:1 ratio. • Solution 6: culture medium with positive control without bile salts, prepared by mixing solution 1 and solution 3 in a 1:1 ratio. • Solution 7: culture medium with positive control with bile salts, prepared by mixing solution 2 and solution 3 in a 1:1 ratio. • Solution 8: culture medium with test compound without bile salts, prepared by mixing solution 1 and solution 4 in a 1:1 ratio. • Solution 9: culture medium with test compound with bile salts, prepared by mixing solution 2 and solution 4 in a 1:1 ratio.
• 1. On day 5, aspirate the medium and preincubate the cells with solution 1, solution 6 or solution 8 for 2 h. Note: this preincubation step is performed to enable the compounds to interact with the cellular machinery. • 2. After 2 h, aspirate the medium and immediately incubate the cells with solution 1, solution 5, solution 6, solution 7, solution 8 or solution 9 for 22 h.
The urea assay is performed on day 6 or day 7 for 24 h and 48 h incubations, respectively.
• Solutions for the color reagent. […] Note: perform this procedure on ice as this is an exothermic reaction. Wear appropriate protective gear. • ○ Solution B prepared by mixing the thiosemicarbazide solution and the diacetyl monoxime in a 1:1 ratio. • Incubation buffer: HBSS containing 10 mM HEPES, 2 mM glutamine, 10 mM ammonium chloride and 3 mM ornithine, filtered through a 0.2 µm filter and prewarmed at 37°C. • 96-well thermostable plate with aluminum cover slip.
• 1. Aspirate the culture medium. • 2. Wash the wells twice with 250 µL prewarmed incubation buffer. Aspirate the remaining buffer. • 3. Add 125 µL prewarmed incubation buffer to each well and keep the plate at 37°C for 1 h. • 4.

COC(=O)N[C@H](C(=O)N[C@@H](Cc1ccccc1)[C@@H](O)CN(Cc1ccc(-c2ccccn2)cc1)NC(=O)[C@@H](NC(=O)OC)C(C)(C)C)C(C)(C)C [Atazanavir, atazanavir]
Cmax,total [1]: 4.82 µM
DICI 24 h Mean ([2]; 50 µM test compound): 0.87
DICI 48 h Mean ([2]; 50 µM test compound): 0.86
DICI 24 h Mean ([2]; 150 µM test compound): 1.19
DICI 48 h Mean ([2]; 150 µM test compound): 0.73
DICI-based SM obtained with the ‘original’ LOAEL method 24 h [3]: 31.12
DICI-based SM obtained with the ‘original’ LOAEL method 48 h [3]: 31.12

COc1ccccc1Oc1c(NS(=O)(=O)c2ccc(C(C)(C)C)cc2)nc(-c2ncccn2)nc1OCCO [Bosentan, bosentan]
Cmax,total [1]: 7.39 µM
DICI 24 h Mean ([2]; 50 µM test compound): 1.07
DICI 48 h Mean ([2]; 50 µM test compound): 1.06
DICI 24 h Mean ([2]; 100 µM test compound): 0.99
DICI 48 h Mean ([2]; 100 µM test compound): 0.87
DICI 24 h Mean ([2]; 200 µM test compound): 1.15
DICI 48 h Mean ([2]; 200 µM test compound): 1.02
DICI-based SM obtained with the ‘original’ LOAEL method 24 h [3]: 27.06
DICI-based SM obtained with the ‘original’ LOAEL method 48 h [3]: 27.06

O=C1CC2(CCCC2)CC(=O)N1CCCCN1CCN(c2ncccn2)CC1 [Buspirone, buspirone]
Cmax,total [1]: 0.01 µM
DICI 24 h Mean ([2]; 0.5 µM test compound): 0.69
DICI 48 h Mean ([2]; 0.5 µM test compound): 0.82
DICI 24 h Mean ([2]; 1 µM test compound): 0.87
DICI 48 h Mean ([2]; 1 µM test compound): 0.90
DICI 24 h Mean ([2]; 5 µM test compound): 0.74
DICI 48 h Mean ([2]; 5 µM test compound): 0.95
DICI 24 h Mean ([2]; 10 µM test compound): 0.82
DICI 48 h Mean ([2]; 10 µM test compound): 0.95
DICI 24 h Mean ([2]; 25 µM test compound): 0.84
DICI 48 h Mean ([2]; 25 µM test compound): 0.71
DICI 24 h Mean ([2]; 50 µM test compound): 0.68
DICI 48 h Mean ([2]; 50 µM test compound): 0.48
DICI 24 h Mean ([2]; 150 µM test compound): 0.53
DICI 48 h Mean ([2]; 150 µM test compound): 0.37
DICI-based SM obtained with the ‘original’ LOAEL method 24 h [3]: 5000
DICI-based SM obtained with the ‘original’ LOAEL method 48 h [3]: 15000

CN(C)CCCN1c2ccccc2Sc2ccc(Cl)cc21 [Chlorpromazine, chlorpromazine]
Cmax,total [1]: 0.0376 µM
DICI 24 h Mean ([2]; 10 µM test compound): 0.48
DICI-based SM obtained with the ‘original’ LOAEL method 24 h [3]: 265.96

CCN(CC)C(=O)/C(C#N)=C/c1cc(O)c(O)c([N+](=O)[O-])c1 [Entacapone, entacapone]
Cmax,total [1]: 4.34 µM
DICI 24 h Mean ([2]; 10 µM test compound): 1.11
DICI 48 h Mean ([2]; 10 µM test compound): 1.02
DICI 24 h Mean ([2]; 30 µM test compound): 1.07
DICI 48 h Mean ([2]; 30 µM test compound): 0.98
DICI 24 h Mean ([2]; 130 µM test compound): 0.62
DICI 48 h Mean ([2]; 130 µM test compound): 0.10
DICI-based SM obtained with the ‘original’ LOAEL method 24 h [3]: 29.95
DICI-based SM obtained with the ‘original’ LOAEL method 48 h [3]: 29.95

CC[C@H]1OC(=O)[C@H](C)[C@@H](O[C@H]2C[C@@](C)(OC)[C@@H](O)[C@H](C)O2)[C@H](C)[C@@H](O[C@@H]2O[C@H](C)C[C@H](N(C)C)[C@H]2O)[C@](C)(O)C[C@@H](C)C(=O)[C@H](C)[C@@H](O)[C@]1(C)O [Erythromycin, erythromycin]
Cmax,total [1]: 3.97 µM
DICI 24 h Mean ([2]; 50 µM test compound): 0.94
DICI 24 h Mean ([2]; 100 µM test compound): 1.29
DICI 24 h Mean ([2]; 200 µM test compound): 1.42
DICI-based SM obtained with the ‘original’ LOAEL method 24 h [3]: 50.38

O=c1[nH]c(=O)n([C@@H]2O[C@H](CO)[C@@H](O)[C@@H]2F)cc1I [Fialuridine, fialuridine]
Cmax,total [1]: 0.64 µM
DICI 24 h Mean ([2]; 10 µM test compound): 0.88
DICI 48 h Mean ([2]; 10 µM test compound): 0.92
DICI 24 h Mean ([2]; 20 µM test compound): 0.94
DICI 48 h Mean ([2]; 20 µM test compound): 0.79
DICI 24 h Mean ([2]; 30 µM test compound): 0.95
DICI 48 h Mean ([2]; 30 µM test compound): 1.26
DICI 24 h Mean ([2]; 50 µM test compound): 0.79
DICI 48 h Mean ([2]; 50 µM test compound): 1.19
DICI 24 h Mean ([2]; 100 µM test compound): 1.12
DICI 48 h Mean ([2]; 100 µM test compound): 0.89
DICI 24 h Mean ([2]; 300 µM test compound): 0.82
DICI 48 h Mean ([2]; 300 µM test compound): 0.96
DICI-based SM obtained with the ‘original’ LOAEL method 24 h [3]: 468.75

CN(C)C(=N)N=C(N)N [Metformin, metformin]
Cmax,total [1]: 7.75 µM
DICI 24 h Mean ([2]; 150 µM test compound): 1.09
DICI 48 h Mean ([2]; 150 µM test compound): 1.34
DICI 24 h Mean ([2]; 300 µM test compound): 1.03
DICI 48 h Mean ([2]; 300 µM test compound): 1.26
DICI 24 h Mean ([2]; 900 µM test compound): 1.12
DICI 48 h Mean ([2]; 900 µM test compound): 1.18

C1CCC(C(CC2CCCCN2)C2CCCCC2)CC1 (centres unmarked) [Perhexiline, perhexiline]
DICI 24 h Mean ([2]; 3 µM test compound): 1.00
DICI 48 h Mean ([2]; 3 µM test compound): 0.80
DICI 24 h Mean ([2]; 9 µM test compound): 1.03
DICI 48 h Mean ([2]; 9 µM test compound): 0.98
DICI 24 h Mean ([2]; 65 µM test compound): 1.10
DICI 48 h Mean ([2]; 65 µM test compound): 1.02
DICI-based SM obtained with the ‘original’ LOAEL method 24 h [3]: 30.09
DICI-based SM obtained with the ‘original’ LOAEL method 48 h [3]: 30.09

CC(C)c1nc(CN(C)C(=O)N[C@H](C(=O)N[C@@H](Cc2ccccc2)C[C@H](O)[C@H](Cc2ccccc2)NC(=O)OCc2cncs2)C(C)C)cs1 [Ritonavir, ritonavir]
Cmax,total [1]: 13.24 µM

CN(CCOc1ccc(CC2SC(=O)NC2=O)cc1)c1ccccn1 (centres unmarked) [Rosiglitazone, rosiglitazone]
DICI-based SM obtained with the ‘original’ LOAEL method 24 h [3]: 56.31

Clc1ccccc1CN1CCc2sccc2C1 [Ticlopidine, ticlopidine]
Cmax,total [1]: 2.898 µM

CO[C@H]1C[C@H](O[C@H]2[C@H](C)[C@@H](O[C@@H]3O[C@H](C)C[C@H](N(C)C)[C@H]3OC(C)=O)[C@@H](C)C[C@@]3(CO3)C(=O)[C@H](C)[C@@H](OC(C)=O)[C@@H](C)[C@@H](C)OC(=O)[C@@H]2C)O[C@@H](C)[C@@H]1OC(C)=O [Troleandomycin, troleandomycin]
DICI 24 h Mean ([2]; 10 µM test compound): 1.00
DICI 48 h Mean ([2]; 10 µM test compound): 0.83
DICI 24 h Mean ([2]; 12.5 µM test compound): 1.41
DICI 24 h Mean ([2]; 20 µM test compound): 1.12
DICI 48 h Mean ([2]; 20 µM test compound): 0.91
DICI 24 h Mean ([2]; 25 µM test compound): 1.13
DICI 24 h Mean ([2]; 50 µM test compound): 0.93
DICI 24 h Mean ([2]; 100 µM test compound): 0.97

CC(=O)CC(c1ccccc1)c1c(O)c2ccccc2oc1=O (centres unmarked) [Warfarin, warfarin]
DICI 24 h Mean ([2]; 500 µM test compound): 1.31
DICI-based SM obtained with the ‘original’ LOAEL method 24 h [3]: 71.74
